Marks after values point to notes of the source that are not given here.
Key:
HepG2 cells = test: Cytotoxicity assay (Alamar Blue, 24 h) on HepG2 cells; assay type: cell-based, human; details: 0.5 × 10^5 cells/well
Method: (§1) HepG2 cells (human hepatocellular carcinoma), VERO cells (African green monkey kidney), and J774.G8 macrophages (murine reticulosarcoma) were maintained in DMEM medium, supplemented with 10% FBS, 1% Pen/Str at 37 °C and 5% CO2 [70, 71]. For the cultivation of L929 fibroblasts (murine fibrosarcoma), RPMI 1640 medium without phenol red, supplemented with 2 mM L-glutamine, 10% FBS, and 1% Pen/Str, was used and maintained under the same conditions of temperature and CO2 as above.
(§2) J774.G8, VERO (10^5 cells/well), HepG2, L929 (0.5 × 10^5 cells/well) cells, and MPMs (3 × 10^5 cells/well) were centrifuged, resuspended in medium, plated in 96-well microplates, and incubated for 24 h under cultivation conditions. Subsequently, they were exposed to different concentrations of the compounds, serially diluted in medium to a final volume of 100 µL/well, and incubated for 24 h at 37 °C and 5% CO2. Cell viability was then assessed using the AB, and data were acquired by spectrophotometry. […] Untreated cells were used as negative controls, and cells exposed to the reference compound (MT) were used as positive controls. The Selectivity Index (SI) was calculated using the ratio SI = CC50 (mammalian cells)/IC50 (promastigote or amastigote forms of L. amazonensis).

[1] = as above; assay type: cell-based, human; details: human, HepG2 cells
Method: as §1, §2

[2] = system: ex vivo amastigote forms of L. amazonensis LTB0016 strain; test: ROS production by flow cytometry, H2DCFDA, ex vivo amastigotes; assay type: cell-based, Leishmania amazonensis; details: exposed to IC50 (AA 10 µM), 24 h
[3] = Cytotoxicity assay (Alamar Blue, 24 h) on VERO cells; assay type: cell-based, African green monkey; details: African green monkey, VERO cells
Method: as §1, §2

[4] = system: promastigote forms of Leishmania amazonensis PH8 strain; test: Mitochondrial membrane potential (ΔΨm) by flow cytometry, TMRE, promastigotes; details: exposed to IC50, 24 h
[5] = system: promastigote forms of Leishmania amazonensis PH8 strain; test: ROS production by flow cytometry, H2DCFDA, promastigotes; assay type: cell-based; details: exposed to IC50 (AA 10 µM), 24 h
[6] = system: promastigote forms of Leishmania amazonensis PH8 strain; test: Leishmanicidal activity assay on promastigotes (Alamar Blue, 24 h); assay type: cell-based; details: Leishmania amazonensis, 10^6 parasites/mL
Method: Promastigote forms of Leishmania amazonensis (IFLA/BR/1967/PH8) were obtained from the Instituto Oswaldo Cruz Leishmania collection (CLIOC/Fiocruz). These cultures were maintained in Schneider’s Insect Medium, supplemented with 20% FBS and 1 μL/mL of Pen/Str at 26 °C. In vitro passages were conducted weekly, with promastigotes harvested during the late logarithmic phase for experiments on the 5th day of growth (Figure S1A).
MT was employed as the reference drug.

[7] = system: promastigote forms of Leishmania amazonensis PH8 strain; test: Preliminary MB concentration assessment on promastigotes, Neubauer chamber counting, 72 h; assay type: cell-based; details: 3.13–200 μM tested
Method: Deyvison Rhuan Vasco-dos-Santos, Juliana Almeida-Silva, Ludmila Ferreira de Almeida Fiuza,
Natalia Vacani-Martins, Zênis Novais da Rocha, Maria de Nazaré Correia Soeiro, Andrea Henriques-Pons,
Eduardo Caio Torres-Santos and Marcos André Vannier-Santos
Evaluation of parasite proliferation after 24 h (B2), 48 h (B3), and 72 h (B4) are shown. Viability was
assessed by counting in a Neubauer chamber. Data represents mean ± SD. (*) p < 0.05 when
compared to negative control by ANOVA and Tukey’s post-test. […]

[8] = system: ex vivo amastigote forms of L. amazonensis LTB0016 strain; test: Mitochondrial membrane potential (ΔΨm) by flow cytometry, TMRE, ex vivo amastigotes
[9] = system: ex vivo amastigote forms of Leishmania amazonensis LTB0016 strain; test: Cell death by flow cytometry, 7-AAD, ex vivo amastigotes; details: IC50, 24 h, mean ± SD
[10] = system: promastigote forms of Leishmania amazonensis PH8 strain; test: Cell death by flow cytometry, Annexin V/PI, promastigotes; details: 200 μM, 24 h, preliminary assay (Figure S5); control 99.81%
L. amazonensis = system: L. amazonensis; parameters: method as in Cabral et al. 136; details: MB treatment with PDT; ref Cabral et al. 136; cited from earlier work
[11] = system: ex vivo amastigote forms of L. amazonensis LTB0016 strain; test: Leishmanicidal activity assay on ex vivo amastigotes (Alamar Blue, 24 h); details: Leishmania amazonensis, 24 h, read-out: IC50 Ama.
Text: Ex vivo amastigote forms of L. amazonensis (MHOM/BR/77/LTB0016) were harvested and purified from lesions of male BALB/c mice. For this, a suspension containing 10^6 amastigotes was inoculated subcutaneously into the intraplantar region of the hind paw. After 30 days, the animals were euthanized, and their paws were excised and rinsed in 70% ethanol. The epidermis and necrotic tissues were mechanically dissociated. Subsequently, the paws were placed in Petri dishes containing RPMI 1640 medium supplemented with 5% FBS and 2% Pen/Str. […] The supernatant was transferred to another tube, homogenized with a syringe, and centrifuged at 764× g for another 15 min. The supernatant was discarded, and the pellet was resuspended in RPMI 1640 medium [69].
(§3) Promastigotes were kept at 26 °C, whereas amastigotes were kept at 32 °C. After 24 h, parasite viability was assessed using the AB colorimetric method, and the data were analyzed using a spectrophotometer as previously described [74]. […] Wells with medium and without parasites were used as blanks, and wells with medium and untreated parasites were used as negative controls. MT was employed as the reference drug.

[12] = Cytotoxicity assay (Alamar Blue, 24 h) on murine peritoneal macrophages; assay type: cell-based, Swiss Webster mice; details: male, Swiss Webster, mouse, murine peritoneal macrophages (MPMs, primary cells), 3 × 10^5 cells/well
Method: Murine peritoneal macrophages—MPMs (primary cells)—were isolated from male Swiss Webster mice stimulated with 1 mL of 3% Brewer’s thioglycollate medium, administered intraperitoneally. After 96 h, the animals were euthanized, and the MPMs were collected by peritoneal lavage with approximately 10 mL of RPMI 1640 medium. The cell suspension was centrifuged at 382× g for 10 min, and the pellet was resuspended in medium supplemented with 5% FBS, 1% Pen/Str, and 2 mM L-glutamine. All cell cultures were maintained at 37 °C and 5% CO2 [73]. For the experiments, all cell types were cultured until confluency.
as §2

[13] = Cytotoxicity assay (Alamar Blue, 24 h) on J774.G8 macrophages; assay type: cell-based, murine; details: mouse, J774.G8 macrophages
Method: as §1, §2

[14] = system: Leishmania amazonensis promastigote forms (PH8 strain)
Method: as §3

[15] = system: fibroblasts and macrophages; parameters: method as in PMID 38917757; details: MB without light treatment; cited from earlier work
[16] = Cytotoxicity assay (Alamar Blue, 24 h) on L929 fibroblasts; assay type: cell-based, murine; details: mouse, L929 fibroblasts
Method: as §1, §2

promastigotes = details: MB without light treatment; cited from earlier work
[17] = lower concentrations (37–100 μM)
[18] = exposed to IC50, 24 h, (MT − MC)/MC

CN(C)c1ccc2nc3ccc(=[N+](C)C)cc-3sc2c1 [MB, methylene blue, reference compound]
CC50 (HepG2 cells): 96 ± 3.28 µM | CC50 at 24 h ([1]; 0.5 × 10^5 cells/well): > 70 µM | viability at 24 h [1, 17]: > 50% | H2DCFDA MFI, Ex Vivo Amastigotes High Population [2]: 140,636.20 | H2DCFDA MFI, Ex Vivo Amastigotes Low Population [2]: 3151.50 | VIROS, Ex Vivo Amastigotes High Population ([2]; MT/MC): 0.90 ± 0.29 | VIROS, Ex Vivo Amastigotes Low Population ([2]; MT/MC): 1.28 ± 0.46 | CC50 at 24 h ([3]; 10^5 cells/well): 141 ± 5.58 µM | viability at 24 h [3, 17]: > 50% | TMRE MFI, Promastigotes High Population [4]: 56,878.47 | TMRE MFI, Promastigotes Low Population [4]: 2737.60 * | VIΔΨm, Promastigotes High Population ([4]; (MT − MC)/MC): 0.02 ± 0.03 | VIΔΨm, Promastigotes Low Population ([4]; (MT − MC)/MC, negative = depolarization): −0.41 ± 0.05 | H2DCFDA MFI, Promastigotes High Population [5]: 1,658,186.80 * | H2DCFDA MFI, Promastigotes Low Population [5]: 26,534.03 | IC50 [6]: 61.4 ± 4.41 µM | concentration from which significant reduction (p < 0.05) at 48 h ([7]; 48 h): ≥ 50 µM | concentration from which total viability loss at 72 h ([7]; 72 h): ≥ 12.50 µM | loss of potential (ΔΨm) in HP ex vivo amastigotes / mitochondrial depolarization ([8]; IC50, 24 h): up to 61% | decrease of ΔΨm considering both subpopulations ([8]; ex vivo amastigotes, LP plus HP, IC50, 24 h): 98% | TMRE MFI, ex vivo Amastigotes High Population ([8]; exposed to IC50, 24 h): 317,106.50 | TMRE MFI, ex vivo Amastigotes Low Population ([8]; exposed to IC50, 24 h): 3237.43 | VIΔΨm, ex vivo Amastigotes High Population [8, 18]: −0.61 ± 0.18 | VIΔΨm, ex vivo Amastigotes Low Population [8, 18]: −0.37 ± 0.32 | cell death (7-AAD) in ex vivo amastigotes [9]: highest mortality rate | viability of promastigotes (AV/PI) [10]: 12.89% | increase in ROS levels (L. amazonensis): 2 fold | reduction in ΔΨm (L. amazonensis): 60% | IC50 [11]: 15.7 ± 2.23 µM | CC50 at 24 h [12]: 36 ± 3.69 µM | CC50 at 24 h ([13]; 10^5 cells/well, read-out: CC50 J744.G8): 206 ± 9.19 µM | viability at 24 h ([13]; lower concentrations (37–100 μM), read-out: viability of J774.G8 cells): > 50% | proliferation of promastigotes over 24 to 168 h ([14]; exposed to IC50): total inhibition from 96 h | time from which proliferation was significantly (p < 0.05) reduced compared to MT ([14]; exposed to IC50, 24–168 h): ≥ 24 h | cytotoxicity in fibroblasts and macrophages [15]: no cytotoxicity observed | CC50 at 24 h ([16]; 0.5 × 10^5 cells/well): 322 ± 3.74 µM | viability at 24 h ([16]; lower concentrations (37–100 μM), read-out: viability of L929 cells): > 50% | IC50 (promastigotes): 100 µM

Source: article PMC12730333 (Biology, 2025)
